Test results taken from ChEMBL document CHEMBL1124314, “Development of phosphonate derivatives of gadolinium chelates for NMR imaging of calcified soft tissues” (J Med Chem, 1989).

Assays:
Rattus norvegicus [1] = organism: Rattus norvegicus; test: Biodistribution in rat liver in the presence of GdDTPA at 1 hr; format: ADME, organism-based; settings: in vivo
Rattus norvegicus [2] = organism: Rattus norvegicus; test: Biodistribution in rat bone in the presence of GdDTPA-HPDP at 30 min; format: ADME, organism-based, Bone element; settings: in vivo, 0.5 h
Rattus norvegicus [3] = organism: Rattus norvegicus; test: Biodistribution in rat bone in the presence of NAC Gd/0.01 M GdDTPA-HPDP; format: ADME, organism-based, Bone element; settings: in vivo
Rattus norvegicus [4] = organism: Rattus norvegicus; test: Biodistribution in rat bone in the presence of GdDTPA at 20 min; settings: in vivo, 0.33 h
Rattus norvegicus [5] = organism: Rattus norvegicus; test: Biodistribution in rat bone in the presence of 0.01 M GdDTPA-BDP; format: ADME, organism-based, Bone element; settings: in vivo
Rattus norvegicus [6] = organism: Rattus norvegicus; test: Biodistribution in rat blood in the presence of GdDTPA at 4 hr; format: ADME, organism-based; settings: in vivo
Rattus norvegicus [7] = organism: Rattus norvegicus; test: Biodistribution in rat kidney in the presence of 0.01 M GdDTPA-BDP; format: ADME, organism-based; settings: in vivo
Rattus norvegicus [8] = organism: Rattus norvegicus; test: Biodistribution in rat kidney in the presence of 0.05 M/0.05 M GdDTPA-AEP; format: ADME, organism-based; settings: in vivo
Rattus norvegicus [9] = organism: Rattus norvegicus; test: Biodistribution in rat muscle in the presence of GdDTPA-HPDPat 15 min; format: ADME, organism-based, Muscle tissue; settings: in vivo, 0.25 h
Rattus norvegicus [10] = organism: Rattus norvegicus; test: Biodistribution in rat liver in the presence of GdDTPA at 15 min; format: ADME, organism-based; settings: in vivo, 0.25 h
Rattus norvegicus [11] = organism: Rattus norvegicus; test: Biodistribution in rat bone in the presence of GdDTPA-HPDP at 4 hr; format: ADME, organism-based, Bone element; settings: in vivo
Rattus norvegicus [12] = organism: Rattus norvegicus; test: Biodistribution in rat liver in the presence of GdDTPA-HPDP at 15 min; format: ADME, organism-based; settings: in vivo, 0.25 h
Rattus norvegicus [13] = organism: Rattus norvegicus; test: Biodistribution in rat bone in the presence of GdDTPA-BDP at 1 h; settings: in vivo
Rattus norvegicus [14] = organism: Rattus norvegicus; test: Biodistribution in rat heart in the presence of GdDTPA at 20 min; settings: in vivo, 0.33 h
Rattus norvegicus [15] = organism: Rattus norvegicus; test: Biodistribution in rat muscle in the presence of 0.05 M GdDTPA-BDP; format: ADME, organism-based, Muscle tissue; settings: in vivo
Rattus norvegicus [16] = organism: Rattus norvegicus; test: Biodistribution in rat bone in the presence of GdDTPA at 30 min; format: ADME, organism-based, Bone element; settings: in vivo, 0.5 h
Rattus norvegicus [17] = organism: Rattus norvegicus; test: Biodistribution in rat blood in the presence of NAC Gd/0.01 M GdDTPA-HPDP; format: ADME, organism-based; settings: in vivo
Rattus norvegicus [18] = organism: Rattus norvegicus; test: Biodistribution in rat blood in the presence of 0.10 M GdDTPA-BDP; format: ADME, organism-based; settings: in vivo
Rattus norvegicus [19] = organism: Rattus norvegicus; test: Biodistribution in rat heart in the presence of 0.01 M Gd/0.01 M GdDTPA-AEP; format: ADME, organism-based; settings: in vivo
Rattus norvegicus [20] = organism: Rattus norvegicus; test: Biodistribution in rat blood in the presence of GdDTPA-HPDP at 15 min; format: ADME, organism-based; settings: in vivo, 0.25 h
Rattus norvegicus [21] = organism: Rattus norvegicus; test: Biodistribution in rat liver in the presence of 0.01 M GdDTPA-BDP; format: ADME, organism-based; settings: in vivo
Rattus norvegicus [22] = organism: Rattus norvegicus; test: Biodistribution in rat heart in the presence of GdDTPA-HPDPat 15 min; format: ADME, organism-based; settings: in vivo, 0.25 h
Rattus norvegicus [23] = organism: Rattus norvegicus; test: Biodistribution in rat blood in the presence of 0.001 M/0.008 M GdDTPA-AEP; format: ADME, organism-based; settings: in vivo
Rattus norvegicus [24] = organism: Rattus norvegicus; test: Biodistribution in rat heart in the presence of GdDTPA at 1 hr; format: ADME, organism-based; settings: in vivo
Rattus norvegicus [25] = organism: Rattus norvegicus; test: Biodistribution in rat heart in the presence of GdDTPA; settings: in vivo
Rattus norvegicus [26] = organism: Rattus norvegicus; test: Biodistribution in rat bone in the presence of GdDTPA-HPDP at 15 min; format: ADME, organism-based, Bone element; settings: in vivo, 0.25 h
Rattus norvegicus [27] = organism: Rattus norvegicus; test: Biodistribution in rat liver in the presence of GdDTPA-HPDP at 1 hr; format: ADME, organism-based; settings: in vivo
Rattus norvegicus [28] = organism: Rattus norvegicus; test: Biodistribution in rat spleen in the presence of 0.01 M GdDTPA-BDP; format: ADME, organism-based; settings: in vivo
Rattus norvegicus [29] = organism: Rattus norvegicus; test: Biodistribution in rat bone in the presence of 0.01 M/0.01 M GdDTPA-AEP; format: ADME, organism-based, Bone element; settings: in vivo
Rattus norvegicus [30] = organism: Rattus norvegicus; test: Biodistribution in rat liver in the presence of GdDTPA at 30 min; format: ADME, organism-based; settings: in vivo, 0.5 h
Rattus norvegicus [31] = organism: Rattus norvegicus; test: Biodistribution in rat kidney in the presence of 0.10 M GdDTPA-BDP; format: ADME, organism-based; settings: in vivo
Rattus norvegicus [32] = organism: Rattus norvegicus; test: Biodistribution in rat heart in the presence of GdDTPA-HPDP at 4 hr; format: ADME, organism-based; settings: in vivo
Rattus norvegicus [33] = organism: Rattus norvegicus; test: Biodistribution in rat heart in the presence of GdDTPA-BDP at 30 min; format: ADME, organism-based; settings: in vivo, 0.5 h
Rattus norvegicus [34] = organism: Rattus norvegicus; test: Biodistribution in rat blood in the presence of 0.05 M GdDTPA-BDP; format: ADME, organism-based; settings: in vivo
Rattus norvegicus [35] = organism: Rattus norvegicus; test: Biodistribution in rat bone in the presence of GdDTPA-BDP at 20 min; settings: in vivo, 0.33 h
Rattus norvegicus [36] = organism: Rattus norvegicus; test: Biodistribution in rat bone in the presence of GdDTPA-BDP at 4 hr; settings: in vivo
Rattus norvegicus [37] = organism: Rattus norvegicus; test: Biodistribution in rat heart in the presence of 0.10 M/0.11 M GdDTPA-HPDP; settings: in vivo
Rattus norvegicus [38] = organism: Rattus norvegicus; test: Biodistribution in rat heart in the presence of GdDTPA-BDP at 2 hr; settings: in vivo
Rattus norvegicus [39] = organism: Rattus norvegicus; test: Biodistribution in rat heart in the presence of 0.05 M/0.08 M GdDTPA-HPDP; format: ADME, organism-based; settings: in vivo
Rattus norvegicus [40] = organism: Rattus norvegicus; test: Biodistribution in rat liver in the presence of NAC Gd/0.01 M GdDTPA-HPDP; format: ADME, organism-based; settings: in vivo
Rattus norvegicus [41] = organism: Rattus norvegicus; test: Biodistribution in rat liver in the presence of GdDTPA at 4 hr; format: ADME, organism-based; settings: in vivo
Rattus norvegicus [42] = organism: Rattus norvegicus; test: Biodistribution in rat blood in the presence of GdDTPA at 20 min; settings: in vivo, 0.33 h
Rattus norvegicus [43] = organism: Rattus norvegicus; test: Biodistribution in rat muscle in the presence of 0.10 M GdDTPA-BDP; format: ADME, organism-based, Muscle tissue; settings: in vivo
Rattus norvegicus [44] = organism: Rattus norvegicus; test: Biodistribution in rat blood in the presence of GdDTPA-BDPat 1 hr; format: ADME, organism-based; settings: in vivo
Rattus norvegicus [45] = organism: Rattus norvegicus; test: Biodistribution in rat kidney in the presence of 0.001 M/0.008 M GdDTPA-AEP; settings: in vivo
Rattus norvegicus [46] = organism: Rattus norvegicus; test: Biodistribution in rat heart in the presence of GdDTPA-HPDP at 30 min; format: ADME, organism-based; settings: in vivo, 0.5 h
Rattus norvegicus [47] = organism: Rattus norvegicus; test: Biodistribution in rat bone in the presence of GdDTPA-HPDP at 1 hr; format: ADME, organism-based, Bone element; settings: in vivo
Rattus norvegicus [48] = organism: Rattus norvegicus; test: Biodistribution in rat heart in the presence of 0.05 M GdDTPA-BDP; format: ADME, organism-based; settings: in vivo
Rattus norvegicus [49] = organism: Rattus norvegicus; test: Biodistribution in rat bone in the presence of GdDTPA-BDP at 4 hr; format: ADME, organism-based, Bone element; settings: in vivo
Rattus norvegicus [50] = organism: Rattus norvegicus; test: Biodistribution in rat heart in the presence of 0.05 M /0.05 M GdDTPA-AEP; format: ADME, organism-based; settings: in vivo
Rattus norvegicus [51] = organism: Rattus norvegicus; test: Biodistribution in rat blood in the presence of GdDTPA-HPDP at 30 min; format: ADME, organism-based; settings: in vivo, 0.5 h
Rattus norvegicus [52] = organism: Rattus norvegicus; test: Biodistribution in rat muscle in the presence of GdDTPA-HPDP at 1 hr; format: ADME, organism-based, Muscle tissue; settings: in vivo
Rattus norvegicus [53] = organism: Rattus norvegicus; test: Biodistribution in rat blood in the presence of GdDTPA-HPDPat 1 hr; format: ADME, organism-based; settings: in vivo
Rattus norvegicus [54] = organism: Rattus norvegicus; test: Biodistribution in rat heart in the presence of NAC Gd/0.01 M GdDTPA-HPDP; format: ADME, organism-based; settings: in vivo
Rattus norvegicus [55] = organism: Rattus norvegicus; test: Biodistribution in rat heart in the presence of GdDTPA-HPDP at 1 hr; format: ADME, organism-based; settings: in vivo
Rattus norvegicus [56] = organism: Rattus norvegicus; test: Biodistribution in rat heart in the presence of GdDTPA at 4 hr; format: ADME, organism-based; settings: in vivo

O=C(O)CN(CCN(CC(=O)O)CC(=O)O)CCN(CC(=O)O)CC(=O)O [PENTETIC ACID] was tested, and the ID/organ (Rattus norvegicus [1]) was 0.267%, the ID/organ (Rattus norvegicus [2]) was 16.8% and the ID/organ (Rattus norvegicus [3]) was 65.7%. The ID/organ (Rattus norvegicus [4]) was 3.5%, the ID/organ (Rattus norvegicus [5]) was 20.5% and the ID/organ (Rattus norvegicus [6]) was 0.005%. The ID/organ (Rattus norvegicus [7]) was 0.476%, the ID/organ (Rattus norvegicus [8]) was 0.264% and the ID/organ (Rattus norvegicus [9]) was 6.36%. For the same molecule, the ID/organ (Rattus norvegicus [10]) was 1.59%, the ID/organ (Rattus norvegicus [11]) was 18.1% and the ID/organ (Rattus norvegicus [12]) was 0.745%. For the same molecule, the ID/organ (Rattus norvegicus [13]) was 17.6%, the ID/organ (Rattus norvegicus [14]) was 0.097% and the ID/organ (Rattus norvegicus [15]) was 4.47%. For the same molecule, the ID/organ (Rattus norvegicus [16]) was 0.779%, the ID/organ (Rattus norvegicus [17]) was 0.26% and the ID/organ (Rattus norvegicus [18]) was 1.62%. For the same molecule, the ID/organ (Rattus norvegicus [19]) was 0.012%, the ID/organ (Rattus norvegicus [20]) was 4.07% and the ID/organ (Rattus norvegicus [21]) was 5.21%. It also gave an ID/organ (Rattus norvegicus [22]) of 0.081%, an ID/organ (Rattus norvegicus [23]) of 0.143% and an ID/organ (Rattus norvegicus [24]) of 0.019%. It also gave an ID/organ (Rattus norvegicus [25]) of 0.019%, an ID/organ (Rattus norvegicus [26]) of 15.5% and an ID/organ (Rattus norvegicus [27]) of 0.201%. The ID/organ (Rattus norvegicus [28]) was 0.185%, the ID/organ (Rattus norvegicus [29]) was 0.641% and the ID/organ (Rattus norvegicus [30]) was 0.418%. The ID/organ (Rattus norvegicus [31]) was 0.29%, the ID/organ (Rattus norvegicus [32]) was 0.003% and the ID/organ (Rattus norvegicus [33]) was 17.6%. It also gave an ID/organ (Rattus norvegicus [34]) of 2.53%, an ID/organ (Rattus norvegicus [35]) of 11% and an ID/organ (Rattus norvegicus [36]) of 18.5%. The ID/organ (Rattus norvegicus [37]) was 0.006%, the ID/organ (Rattus norvegicus [38]) was 0.048% and the ID/organ (Rattus norvegicus [39]) was 0.007%. It also gave an ID/organ (Rattus norvegicus [40]) of 0.082%, an ID/organ (Rattus norvegicus [41]) of 0.163% and an ID/organ (Rattus norvegicus [42]) of 6.03%. The ID/organ (Rattus norvegicus [43]) was 3.59%, the ID/organ (Rattus norvegicus [44]) was 2.53% and the ID/organ (Rattus norvegicus [45]) was 0.268%. It also gave an ID/organ (Rattus norvegicus [46]) of 0.04%, an ID/organ (Rattus norvegicus [47]) of 20% and an ID/organ (Rattus norvegicus [48]) of 0.048%. The ID/organ (Rattus norvegicus [49]) was 18.5%, the ID/organ (Rattus norvegicus [50]) was 0.016% and the ID/organ (Rattus norvegicus [51]) was 2.46%. It also gave an ID/organ (Rattus norvegicus [52]) of 0.889%, an ID/organ (Rattus norvegicus [53]) of 0.543% and an ID/organ (Rattus norvegicus [54]) of 0.032%. For the same molecule, the ID/organ (Rattus norvegicus [55]) was 0.011% and the ID/organ (Rattus norvegicus [56]) was 0.002%.
